Data from PubChem BioAssay AID2060894 (Molecular Pharmacology Branch, DTP, NCI, 2025).

Test system: K12877-001-R-J1-PDC complex spheroid viability
Assay: Anticancer human tumor K12877-001-R-J1-PDC patient-derived lung adenocarcinoma cell line growth inhibition [RAS]
Settings: for IC50: curve of first compound; for viability, T/C: stronger effect = lower value; active = viability on the fitted dose curve at most 10% of control; inactive = the rest
Excerpt: RAS pathway inhibitors in Combinations in Complex Spheroids
A high-throughput screen of multi-cell type tumor spheroids was designed to identify active combinations of RAS pathway inhibitors and targeted small molecules. Complex spheroids include a stromal component modeled by human endothelial cells (HUVEC) and fibroblasts modeled by human mesenchymal stem cells (MSCs). The concentration ranges selected for each drug and investigational agent were based upon clinically achievable concentrations if the clinical Cmax of the agent was known.
Compounds. The drugs and investigational agents: abemaciclib (NSC768073), cobimetinib (NSC768068), divarasib (GDC6063, NSC841802), docetaxel (NSC628503), GDC-1971 (RLY-1971, NSC841576), gemcitabine (NSC613327), inavolisib (NSC800729), ipatasertib (NSC767898), KB-0742 (NSC834161), MRTX-1133 (NSC836407), osimertinib (NSC779217), RMC-4630 (NSC839698), RMC-6236 (NSC851965), RMC-6291 (NSC852671), Ro-3306 (NSC812927), sapanisertib (NSC764658), SN-38 (NSC673596), staurosporine (NSC755774), SY5609 (NSC837396), and tovorafenib (DAY101, NSC766906), were obtained from the National Cancer Institute (NCI) Developmental Therapeutics Program Chemical Repository. The FDA-approved anticancer drug set is available from the NCI Developmental Therapeutics Program. […] The stock solutions were prepared in dimethyl sulfoxide (DMSO, Sigma-Aldrich, St. Louis, MO, cat. D2650) at 800-fold the tested concentration and stored at -70 degrees C prior to their use. All drugs and investigational agents were tested over a range starting from a high concentration at or near the clinical Cmax and decreasing in half-log increments. If the clinical Cmax for an agent had not been determined, the highest concentration tested was 10 microM.
Cell Culture. All cells were maintained in an incubator at 37 degrees C and 5% CO2 with 95% humidity. The PDC lines were cultured according to standard operating procedures established by the NCI PDMR. All PDCs were thawed and cultured in Matrigel-coated flasks prepared with a working solution of 1X Ham's F-12 nutrient mix, without supplementation (Invitrogen, Waltham, MA, cat. 11765054), 100 U/mL penicillin-streptomycin (Invitrogen, cat. 15140122), and 2.5% Matrigel (Corning Inc., Corning, NY, cat. 354248) for the first three passages. The 362531-283-R-J2-PDC and 782815-120-R-J1-PDC lines were cultured in 6C/Colon 1B media, which includes advanced DMEM/F-12 (Thermo Fisher Scientific, cat. 12634028), 10 mM HEPES (Thermo Fisher Scientific, cat. 15630080), 1X GlutaMAX supplement (Thermo Fisher Scientific, cat. 35050061), 0.1 mg/mL primocin (InvivoGen, San Diego, CA, cat. ant-pm-2), 10% defined fetal bovine serum, heat inactivated (HyClone Laboratories Inc., Logan, UT, cat. SH30070.03HI), 50% L-WRN conditioned media (ATCC, cat. CRL-3276), 1.25 mM N-Acetyl-L-cysteine (Sigma-Aldrich, cat. A9165), 10 mM nicotinamide (Sigma-Aldrich, cat. N0636), 1X B-27 supplement (Thermo Fisher Scientific, cat. 17504044), 1X N-2 supplement (Thermo Fisher Scientific, cat. 17502048), 50 ng/mL human EGF (Thermo Fisher Scientific, cat. PHG0311), and 10 microM Y-27632 dihydrochloride (Tocris Bioscience, cat. 1254). The K12877-001-R-J1-PDC line was cultured in 6I media, which includes all 6C/Colon 1B media plus 10 ng/mL human FGF-10 (PeproTech, cat. 100-26), 1 ng/mL human FGF-2 (PeproTech, cat. 100-18B), 1 µM prostaglandin E2 (Tocris Bioscience, cat. 2296), […] hydrocortisone (Sigma-Aldrich, cat. H4001), and […] bovine insulin (Sigma-Aldrich, cat. I6634). The K86415-001-R-J1-PDC line was cultured in 6D media, which includes all 6C/Colon 1B media components minus the L-WRN conditioned media. The 485176-168-R4-J1-PDC was cultured in PANC media, which includes all 6C/Colon 1B media plus 100 ng/mL human FGF-10 (PeproTech, cat. 100-26), 500 nM SB-431542 (Selleckchem, cat. S1067), and 10 nM gastrin (Tocris Bioscience, cat. 3006). […]
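Note: spheroids exposed to agents for one week before readout.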

O=C(c1ccc(F)c(F)c1Nc1ccc(I)cc1F)N1CC(O)([C@@H]2CCCCN2)C1 + CCn1c(-c2cc(N3CCN(C)CC3)cnc2C(C)OC)c2c3cc(ccc31)-c1csc(n1)CC(NC(=O)C1CC1C)C(=O)N1CCCC(N1)C(=O)OCC(C)(C)C2
0.508 µM: IC50 (second compound 0.03 µM)
> 1 µM: IC50 (second compound 0.000949 µM) | IC50 (second compound 0.003 µM) | IC50 (second compound 0.00949 µM)
0.0585 µM: IC50 (second compound 0.3 µM)
inactive: viability, T/C (second compound 0.000949 µM, first compound 0.00316 µM) 79.6% | viability, T/C (second compound 0.000949 µM, first compound 0.01 µM) 71.2% | viability, T/C (second compound 0.000949 µM, first compound 0.0316 µM) 66% | viability, T/C (second compound 0.000949 µM, first compound 0.1 µM) 57.9% | viability, T/C (second compound 0.000949 µM, first compound 0.316 µM) 71.4% | viability, T/C (second compound 0.000949 µM, first compound 1 µM) 56% | viability, T/C (second compound 0.003 µM, first compound 0.00316 µM) 71.4% | viability, T/C (second compound 0.003 µM, first compound 0.01 µM) 66.6% | viability, T/C (second compound 0.003 µM, first compound 0.0316 µM) 68.1% | viability, T/C (second compound 0.003 µM, first compound 0.1 µM) 79% | viability, T/C (second compound 0.003 µM, first compound 0.316 µM) 82.6% | viability, T/C (second compound 0.003 µM, first compound 1 µM) 60.5% | viability, T/C (second compound 0.00949 µM, first compound 0.00316 µM) 71.3% | viability, T/C (second compound 0.00949 µM, first compound 0.01 µM) 65.8% | viability, T/C (second compound 0.00949 µM, first compound 0.0316 µM) 82% | viability, T/C (second compound 0.00949 µM, first compound 0.1 µM) 91.3% | viability, T/C (second compound 0.00949 µM, first compound 0.316 µM) 80.7% | viability, T/C (second compound 0.00949 µM, first compound 1 µM) 53.5% | viability, T/C (second compound 0.03 µM, first compound 0.00316 µM) 110% | viability, T/C (second compound 0.03 µM, first compound 0.01 µM) 105% | viability, T/C (second compound 0.03 µM, first compound 0.0316 µM) 98.9% | viability, T/C (second compound 0.03 µM, first compound 0.1 µM) 72.6% | viability, T/C (second compound 0.03 µM, first compound 0.316 µM) 59.4% | viability, T/C (second compound 0.03 µM, first compound 1 µM) 40% | viability, T/C (second compound 0.0949 µM, first compound 0.00316 µM) 92.7% | viability, T/C (second compound 0.0949 µM, first compound 0.01 µM) 90.4% | viability, T/C (second compound 0.0949 µM, first compound 0.0316 µM) 77.8% | viability, T/C (second compound 0.0949 µM, first compound 0.1 µM) 50.3% | viability, T/C (second compound 0.0949 µM, first compound 0.316 µM) 29% | viability, T/C (second compound 0.0949 µM, first compound 1 µM) 25.6% | viability, T/C (second compound 0.3 µM, first compound 0.00316 µM) 80.2% | viability, T/C (second compound 0.3 µM, first compound 0.01 µM) 74.9% | viability, T/C (second compound 0.3 µM, first compound 0.0316 µM) 54.8% | viability, T/C (second compound 0.3 µM, first compound 0.1 µM) 44.8% | viability, T/C (second compound 0.3 µM, first compound 0.316 µM) 29.2% | viability, T/C (second compound 0.3 µM, first compound 1 µM) 20.3%
0.0988 µM: IC50 (second compound 0.0949 µM)
